# From ChEMBL document CHEMBL1141145, “A chiral benzoquinolizine-2-carboxylic acid arginine salt active against vancomycin-resistant Staphylococcus aureus” (J Med Chem, 2005)
# Experiments:
# Staphylococcus aureus [1] = assay: Minimum inhibitory concentration against vancomycin intermediate Staphylococcus aureus MU 3; assay type: functional
# Streptococcus agalactiae = assay: Minimum inhibitory concentration against Streptococcus agalactiae ATCC 13813; assay type: functional
# Staphylococcus aureus [2] = assay: Minimum inhibitory concentration against Staphylococcus aureus gyrA/grlA double mutant; assay type: functional
# [3] = system: Staphylococcus saprophyticus; assay: Minimum inhibitory concentration against Staphylococcus saprophyticus ATCC 15305; assay type: functional
# Enterococcus faecalis = assay: Minimum inhibitory concentration against Enterococcus faecalis ATCC 29212; assay type: functional
# Klebsiella pneumoniae = assay: Minimum inhibitory concentration against Klebsiella pneumoniae ATCC 10031; assay type: functional
# Staphylococcus aureus [4] = assay: Minimum inhibitory concentration against methicillin susceptible Staphylococcus aureus; assay type: functional; settings: Staphylococcus aureus; read-out: MIC
# Phocaeicola vulgatus = assay: Minimum inhibitory concentration against Bacteroides vulgatus ATCC 29327; assay type: functional
# Staphylococcus aureus [5] = assay: Mutant prevention concentration aganist methicillin resistant Staphylococcus aureus-5023 done for 48 hr at 37 degree C with compound; assay type: functional
# Staphylococcus aureus [6] = assay: Minimum inhibitory concentration against Staphylococcus aureus gyrA mutant; assay type: functional
# Staphylococcus aureus [7] = assay: Minimum inhibitory concentration against Staphylococcus aureus ATCC 25923; assay type: functional
# Streptococcus sanguinis = assay: Minimum inhibitory concentration against Streptococcus sanguis ATCC 10556; assay type: functional
# Staphylococcus aureus [8] = assay: Minimum inhibitory concentration against Staphylococcus aureus grlA mutant; assay type: functional
# Streptococcus pyogenes = assay: Minimum inhibitory concentration against Streptococcus pyogenes ATCC 19615; assay type: functional
# Staphylococcus aureus [9] = assay: Minimum inhibitory concentration against Staphylococcus aureus ISP 794 (wild type); assay type: functional
# Mus musculus [10] = assay: Efficacy against mice infected with MRSA-32 upon s.c. administration; assay type: functional; settings: MRSA-32, sc
# Mus musculus [11] = assay: Efficacy against mice infected with MRSA-33 upon s.c. administration; assay type: functional; settings: sc
# Staphylococcus aureus [12] = assay: Minimum inhibitory concentration against Vancomycin intermediate Staphylococcus aureus MU 50; assay type: functional
# Staphylococcus aureus [13] = assay: Minimum inhibitory concentration against vancomycin-resistant Staphylococcus aureus (Hershey); assay type: functional
# Mus musculus [14] = assay: Protection of mice infected with MRSA-32 cell suspension after oral administration of compound; assay type: functional; settings: Mus musculus, MRSA-32, po; read-out: ED50
# Mus musculus [15] = assay: Efficacy against mice infected with Staphylococcus aureus ATCC 25923 upon s.c. administration; assay type: functional; settings: sc
# Staphylococcus aureus [16] = assay: Frequency of resistance emergence for methicillin resistant Staphylococcus aureus-32; assay type: functional
# Staphylococcus aureus [17] = assay: Frequency of resistance emergence for methicillin resistant Staphylococcus aureus-33; assay type: functional
# Staphylococcus aureus [18] = assay: Frequency of resistance emergence for methicillin resistant Staphylococcus aureus-5023; assay type: functional
# Staphylococcus aureus [19] = assay: Mutant prevention concentration against methicillin resistant Staphylococcus aureus-32 done for 48 h at 37 degree C with compound; assay type: functional
# Staphylococcus aureus [20] = assay: Mutant prevention concentration aganist methicillin resistant Staphylococcus aureus-33 done for 48 hr at 37 degree C with compound; assay type: functional
# Rattus norvegicus = assay: Amount of drug at which at 14 days of daily administration produced no venous blockage or phlebitis in rats; assay type: functional
# [21] = Peak plasma concentration in phase I clinical studies at a i.v. dose of 600 mg; assay type: ADME, organism-based; set-up: dose 600 mg, route intravenous; settings: human, iv
# [22] = Half life in phase I clinical studies at a i.v. dose of 600 mg; assay type: ADME, organism-based; settings: human, in vivo, iv
# [23] = system: Staphylococcus haemolyticus; assay: Minimum inhibitory concentration against Staphylococcus haemolyticus ATCC 29970; assay type: functional
# DNA gyrase [24] = biological target: T1, DNA gyrase (Staphylococcus aureus, UniProt P0A0K8+P20831)
# [25] = biological target: DNA topoisomerase 4 subunit A (Staphylococcus aureus, UniProt P0C1U9)
# Streptococcus pneumoniae [26] = assay: microbe, parasite or virus in culture; settings: ATCC 6303
# Streptococcus pneumoniae [27] = assay: microbe, parasite or virus in culture; settings: ATCC 49619
# Escherichia coli = assay: microbe, parasite or virus in culture; settings: ATCC 25922
# Pseudomonas aeruginosa = assay: microbe, parasite or virus in culture; settings: ATCC 27853
# Staphylococcus aureus [28] = assay: microbe, parasite or virus in culture
# Staphylococcus aureus [29] = assay: microbe, parasite or virus in culture; remark: listed apart in the source
# Staphylococcus aureus [30] = assay: microbe, parasite or virus in culture; remark: listed apart in the source
# [31] = biological target: T2, DNA gyrase (Staphylococcus aureus) (UniProt P0A0K8+P20831)
# [32] = biological target: DNA topoisomerase 4 subunit A (Staphylococcus aureus) (UniProt P0C1U9)
# Staphylococcus aureus [33] = assay: microbe, parasite or virus in culture; remark: listed apart in the source
# physchem [34] = settings: octanol/water, pH 7.4
# physchem [35] = assay: physchem
# physchem [36] = assay: physchem; remark: listed apart in the source
# physchem [37] = assay: physchem; remark: listed apart in the source
# physchem [38] = settings: octanol/water, pH 2
# Mus musculus [39] = assay: Protection of mice infected with MRSA-32 cell suspension after s.c. administration of compound; assay type: functional; settings: MRSA-32, sc
# Staphylococcus aureus [40] = assay: Minimum inhibitory concentration against methicillin susceptible Staphylococcus aureus in the absence of esterase action; assay type: functional
# Staphylococcus aureus [41] = assay: Ratio of MPC to MIC aganist methicillin resistant Staphylococcus aureus-32; assay type: functional
# Staphylococcus aureus [42] = assay: Ratio of MPC to MIC against methicillin resistant Staphylococcus aureus-33; assay type: functional
# Staphylococcus aureus [43] = assay: Ratio of MPC to MIC against methicillin resistant Staphylococcus aureus-5023; assay type: functional
# DNA gyrase [44] = biological target: T1, DNA gyrase; remark: listed apart in the source
# [45] = biological target: DNA topoisomerase 4 subunit A (Staphylococcus aureus) (UniProt P0C1U9); remark: listed apart in the source
# [46] = biological target: T2, DNA gyrase (Staphylococcus aureus); remark: listed apart in the source
# T2 sequence (P0A0K8 2-644 limits assumed): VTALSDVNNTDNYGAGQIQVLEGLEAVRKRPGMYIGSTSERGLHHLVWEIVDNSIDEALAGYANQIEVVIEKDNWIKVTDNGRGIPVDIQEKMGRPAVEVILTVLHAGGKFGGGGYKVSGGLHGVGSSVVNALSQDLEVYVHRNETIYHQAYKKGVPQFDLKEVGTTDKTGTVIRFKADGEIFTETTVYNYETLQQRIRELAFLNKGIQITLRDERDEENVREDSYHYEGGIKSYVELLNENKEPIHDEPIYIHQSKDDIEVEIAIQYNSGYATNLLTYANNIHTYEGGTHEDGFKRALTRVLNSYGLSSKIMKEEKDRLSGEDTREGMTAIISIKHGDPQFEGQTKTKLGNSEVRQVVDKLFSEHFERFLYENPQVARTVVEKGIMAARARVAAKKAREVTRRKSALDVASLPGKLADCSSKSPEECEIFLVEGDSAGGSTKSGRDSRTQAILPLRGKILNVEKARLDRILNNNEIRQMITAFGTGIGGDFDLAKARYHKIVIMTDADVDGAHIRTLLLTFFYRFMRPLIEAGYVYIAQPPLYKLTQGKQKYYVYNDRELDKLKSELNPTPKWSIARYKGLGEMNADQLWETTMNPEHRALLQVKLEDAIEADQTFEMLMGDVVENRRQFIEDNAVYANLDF
# T2 sequence (P20831 whole entry partner): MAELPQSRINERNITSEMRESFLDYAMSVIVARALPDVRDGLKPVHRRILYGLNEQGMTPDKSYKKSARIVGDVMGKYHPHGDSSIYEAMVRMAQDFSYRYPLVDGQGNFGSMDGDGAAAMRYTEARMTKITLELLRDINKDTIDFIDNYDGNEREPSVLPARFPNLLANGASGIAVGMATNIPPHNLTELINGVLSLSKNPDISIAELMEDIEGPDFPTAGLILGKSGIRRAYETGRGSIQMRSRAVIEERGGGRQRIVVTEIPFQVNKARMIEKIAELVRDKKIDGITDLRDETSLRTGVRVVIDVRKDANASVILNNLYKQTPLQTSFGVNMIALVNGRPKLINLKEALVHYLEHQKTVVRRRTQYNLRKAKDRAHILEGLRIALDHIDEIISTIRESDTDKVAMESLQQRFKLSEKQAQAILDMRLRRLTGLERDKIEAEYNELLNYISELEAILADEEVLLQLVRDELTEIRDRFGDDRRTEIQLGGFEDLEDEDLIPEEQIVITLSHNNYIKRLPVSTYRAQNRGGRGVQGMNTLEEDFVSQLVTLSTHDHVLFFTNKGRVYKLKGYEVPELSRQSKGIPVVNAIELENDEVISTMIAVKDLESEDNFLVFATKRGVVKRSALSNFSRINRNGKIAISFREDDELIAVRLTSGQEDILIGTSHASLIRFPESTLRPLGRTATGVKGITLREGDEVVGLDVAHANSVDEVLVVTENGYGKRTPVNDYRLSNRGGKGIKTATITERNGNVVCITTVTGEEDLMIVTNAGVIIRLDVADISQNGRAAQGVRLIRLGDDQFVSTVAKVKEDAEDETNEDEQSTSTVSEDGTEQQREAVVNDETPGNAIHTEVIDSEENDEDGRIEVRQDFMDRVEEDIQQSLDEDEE
# T1 sequence (P0A0K8 whole entry): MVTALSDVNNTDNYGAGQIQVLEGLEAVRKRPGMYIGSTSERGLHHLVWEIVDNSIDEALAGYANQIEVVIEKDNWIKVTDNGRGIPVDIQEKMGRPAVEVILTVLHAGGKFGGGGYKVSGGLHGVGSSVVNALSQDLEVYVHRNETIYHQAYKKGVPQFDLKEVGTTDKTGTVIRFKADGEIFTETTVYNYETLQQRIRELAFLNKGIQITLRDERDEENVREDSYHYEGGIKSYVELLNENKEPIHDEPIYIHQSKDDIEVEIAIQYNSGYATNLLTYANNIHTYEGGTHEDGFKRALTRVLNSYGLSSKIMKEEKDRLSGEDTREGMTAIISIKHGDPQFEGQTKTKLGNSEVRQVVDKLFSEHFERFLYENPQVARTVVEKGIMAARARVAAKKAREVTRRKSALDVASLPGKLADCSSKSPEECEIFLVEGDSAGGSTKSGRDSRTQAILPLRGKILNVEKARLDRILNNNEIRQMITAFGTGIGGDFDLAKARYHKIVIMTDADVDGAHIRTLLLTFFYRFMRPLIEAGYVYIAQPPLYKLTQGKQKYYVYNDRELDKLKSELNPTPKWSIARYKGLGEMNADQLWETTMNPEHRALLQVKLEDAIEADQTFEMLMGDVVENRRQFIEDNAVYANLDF
# T1 sequence (P20831 whole entry): as the sequence (P20831 whole entry partner) above
# DNA topoisomerase 4 subunit A, sequence (P0C1U9 whole entry): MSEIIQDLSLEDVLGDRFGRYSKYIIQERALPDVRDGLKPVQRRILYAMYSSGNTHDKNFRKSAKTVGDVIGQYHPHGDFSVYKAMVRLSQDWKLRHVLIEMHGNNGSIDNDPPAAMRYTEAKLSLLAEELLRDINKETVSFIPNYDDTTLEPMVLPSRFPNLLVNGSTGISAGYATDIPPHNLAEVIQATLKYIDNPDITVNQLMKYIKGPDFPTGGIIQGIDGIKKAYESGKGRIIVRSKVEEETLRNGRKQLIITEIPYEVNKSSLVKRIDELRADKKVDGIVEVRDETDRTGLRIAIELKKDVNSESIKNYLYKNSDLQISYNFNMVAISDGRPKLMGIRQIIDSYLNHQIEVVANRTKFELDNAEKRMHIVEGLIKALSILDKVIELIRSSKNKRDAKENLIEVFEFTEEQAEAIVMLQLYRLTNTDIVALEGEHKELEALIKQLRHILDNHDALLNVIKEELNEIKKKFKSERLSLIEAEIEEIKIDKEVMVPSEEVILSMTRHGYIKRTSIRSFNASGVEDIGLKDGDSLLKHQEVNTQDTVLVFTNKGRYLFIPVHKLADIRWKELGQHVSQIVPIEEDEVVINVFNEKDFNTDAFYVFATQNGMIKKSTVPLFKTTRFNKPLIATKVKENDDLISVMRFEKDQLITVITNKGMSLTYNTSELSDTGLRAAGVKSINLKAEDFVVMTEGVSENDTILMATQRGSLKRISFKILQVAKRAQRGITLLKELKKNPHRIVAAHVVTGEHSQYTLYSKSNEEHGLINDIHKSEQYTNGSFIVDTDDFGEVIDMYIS
# DNA topoisomerase 4 subunit A (Staphylococcus aureus), sequence (P0C1U9 whole entry): as above
compound,measurement,setting,value
C[C@H]1CCc2c(N3CCC(O)CC3)c(F)cc3c(=O)c(C(=O)O)cn1c23.N=C(N)NCCC[C@H](N)C(=O)O.O.O.O.O,MIC,Staphylococcus aureus [1],2 µg/mL
same,MIC,Streptococcus agalactiae,0.12 µg/mL
same,MIC,Staphylococcus aureus [2],1 µg/mL
same,MIC,[3],0.06 µg/mL
same,MIC,Enterococcus faecalis,0.25 µg/mL
same,MIC,Klebsiella pneumoniae,0.008 µg/mL
same,MIC,Staphylococcus aureus [4],0.03 µg/mL
same,MIC,Phocaeicola vulgatus,0.5 µg/mL
same,MPC,Staphylococcus aureus [5],2 µg/mL
same,MIC,Staphylococcus aureus [6],0.032 µg/mL
same,MIC,Staphylococcus aureus [7],0.03 µg/mL
same,MIC,Streptococcus sanguinis,0.25 µg/mL
same,MIC,Staphylococcus aureus [8],0.032 µg/mL
same,MIC,Streptococcus pyogenes,0.06 µg/mL
same,MIC,Staphylococcus aureus [9],0.016 µg/mL
same,ED50,Mus musculus [10],27.8 mg/kg
same,ED50,Mus musculus [11],38.3 mg/kg
same,MIC,Staphylococcus aureus [12],1 µg/mL
same,MIC,Staphylococcus aureus [13],0.5 µg/mL
same,ED50,Mus musculus [14],93.6 mg/kg
same,ED50,Mus musculus [15],0.59 mg/kg
same,FRE,Staphylococcus aureus [16],<6.51e-09
same,FRE,Staphylococcus aureus [17],<3.51e-09
same,FRE,Staphylococcus aureus [18],<4.1e-07
same,MPC,Staphylococcus aureus [19],2 µg/mL
same,MPC,Staphylococcus aureus [20],2 µg/mL
same,NOEL,Rattus norvegicus,250 mg/kg
same,Cmax,[21],4000 ng/mL
same,half-life,[22],6 h
same,MIC,[23],0.015 µg/mL
same,IC50,DNA gyrase [24],8.24 µM
same,IC50,[25],8.24 µM
same,MIC,Streptococcus pneumoniae [26],0.12 µg/mL
same,MIC,Streptococcus pneumoniae [27],0.12 µg/mL
same,MIC,Escherichia coli,0.12 µg/mL
same,MIC,Pseudomonas aeruginosa,4 µg/mL
same,MIC,Staphylococcus aureus [28],1 µg/mL
same,MIC,Staphylococcus aureus [29],1 µg/mL
same,MIC,Staphylococcus aureus [30],1 µg/mL
O=C(O)c1cn(C2CC2)c2cc(N3CCNCC3)c(F)cc2c1=O [CIPROFLOXACIN],MIC,Streptococcus agalactiae,2 µg/mL
same,MIC,[3],0.5 µg/mL
same,MIC,Enterococcus faecalis,2 µg/mL
same,MIC,Klebsiella pneumoniae,< 0.008 µg/mL
same,MIC,Phocaeicola vulgatus,8 µg/mL
same,MIC,Staphylococcus aureus [7],1 µg/mL
same,MIC,Streptococcus sanguinis,2 µg/mL
same,MIC,Staphylococcus aureus [8],1 µg/mL
same,MIC,Streptococcus pyogenes,0.5 µg/mL
same,MIC,[23],0.25 µg/mL
same,CC50,[31],50 µg/mL
same,CC50,[32],2.5 µg/mL
same,MIC,Escherichia coli,< 0.008 µg/mL
same,MIC,Pseudomonas aeruginosa,1 µg/mL
COc1c(N2C[C@@H]3CCCN[C@@H]3C2)c(F)cc2c(=O)c(C(=O)O)cn(C3CC3)c12 [MOXIFLOXACIN],MIC,Staphylococcus aureus [1],4 µg/mL
same,MIC,Streptococcus agalactiae,0.12 µg/mL
same,MIC,[3],0.25 µg/mL
same,MIC,Enterococcus faecalis,0.25 µg/mL
same,MIC,Klebsiella pneumoniae,0.008 µg/mL
same,MIC,Phocaeicola vulgatus,0.5 µg/mL
same,MPC,Staphylococcus aureus [5],10 µg/mL
same,MIC,Staphylococcus aureus [7],0.06 µg/mL
same,MIC,Streptococcus sanguinis,0.5 µg/mL
same,MIC,Streptococcus pyogenes,0.25 µg/mL
same,ED50,Mus musculus [10],30 mg/kg
same,ED50,Mus musculus [11],66.1 mg/kg
same,ED50,Mus musculus [15],0.6 mg/kg
same,FRE,Staphylococcus aureus [16],4.51e-05
same,FRE,Staphylococcus aureus [17],2.1e-06
same,FRE,Staphylococcus aureus [18],3.1e-05
same,MPC,Staphylococcus aureus [19],10 µg/mL
same,MPC,Staphylococcus aureus [20],10 µg/mL
same,MIC,[23],0.06 µg/mL
same,MIC,Staphylococcus aureus [33],4 µg/mL
same,MIC,Pseudomonas aeruginosa,4 µg/mL
same,MIC,Staphylococcus aureus [28],2 µg/mL
same,MIC,Staphylococcus aureus [29],2 µg/mL
same,MIC,Staphylococcus aureus [30],2 µg/mL
N[C@@H]1[C@H]2CN(c3nc4c(cc3F)c(=O)c(C(=O)O)cn4-c3ccc(F)cc3F)C[C@@H]12 [TROVAFLOXACIN],logD,physchem [34],0.42
same,pKa,physchem [35],4.45
same,pKa,physchem [36],8.02
same,pKa,physchem [37],8.13
same,logD,physchem [38],-0.35
C[C@H]1CCc2c(N3CCC(O)CC3)c(F)cc3c(=O)c(C(=O)O)cn1c23 [LEVONADIFLOXACIN],ED50,Mus musculus [14],62.3 mg/kg
same,ED50,Mus musculus [39],24.8 mg/kg
same,MIC,Staphylococcus aureus [40],0.03 µg/mL
COc1c(N2CCNC(C)C2)c(F)cc2c(=O)c(C(=O)O)cn(C3CC3)c12 (stereo not given) [GATIFLOXACIN],MIC,Streptococcus agalactiae,0.25 µg/mL
same,MIC,[3],0.25 µg/mL
same,MIC,Enterococcus faecalis,0.25 µg/mL
same,MIC,Klebsiella pneumoniae,0.008 µg/mL
same,MIC,Phocaeicola vulgatus,0.5 µg/mL
same,MPC,Staphylococcus aureus [5],8 µg/mL
same,MIC,Staphylococcus aureus [7],0.1 µg/mL
same,MIC,Streptococcus sanguinis,0.5 µg/mL
same,MIC,Streptococcus pyogenes,0.25 µg/mL
same,FRE,Staphylococcus aureus [16],0.000451
same,FRE,Staphylococcus aureus [17],0.0041
same,FRE,Staphylococcus aureus [18],3.51e-06
same,MPC,Staphylococcus aureus [19],8 µg/mL
same,MPC,Staphylococcus aureus [20],14 µg/mL
same,MPC/MIC,Staphylococcus aureus [41],2
same,MPC/MIC,Staphylococcus aureus [42],3.5
same,MPC/MIC,Staphylococcus aureus [43],2
same,MIC,[23],0.06 µg/mL
same,logD,physchem [34],-0.79
same,pKa,physchem [35],5.97
same,pKa,physchem [36],9.82
same,logD,physchem [38],-1.14
same,MIC,Streptococcus pneumoniae [26],0.5 µg/mL
same,MIC,Streptococcus pneumoniae [27],0.5 µg/mL
same,MIC,Escherichia coli,0.03 µg/mL
same,MIC,Pseudomonas aeruginosa,4 µg/mL
CC1CCc2c(N3CCC(O)CC3)c(F)cc3c(=O)c(C(=O)O)cn1c23 (stereo not given) [NADIFLOXACIN],MIC,Staphylococcus aureus [2],32 µg/mL
same,MIC,Staphylococcus aureus [6],1 µg/mL
same,MIC,Staphylococcus aureus [8],1 µg/mL
same,MIC,Staphylococcus aureus [9],0.25 µg/mL
same,IC50,DNA gyrase [44],27.7 µM
same,IC50,[25],> 27.7 µM
same,CC50,[45],> 10 µg/mL
same,CC50,[46],25 µg/mL
same,pKa,physchem [35],6.8
